Where “and” joins values, the source holds several entries; their conditions need not be identical. Identical values can stand only once.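 Values below derive from 48-hour exposures of cells grown in 96-well plates, with endpoints linearly interpolated between the two concentrations bracketing the appropriate inhibition level. GI50 = concentration required for 50% inhibition of growth.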 Calls of active or inactive are those of the source. Cut-off read from the data, not from the text of the source: active = GI50 up to about 1.1 µM and inactive = higher.
Experiments:
Assay in all cases: inhibition of tumour cell growth, NCI panel, 48 h
SNB-78 = tested on: SNB-78
DLD-1 = tested on: DLD-1
LXFL 529 = tested on: LXFL 529
M19-MEL = tested on: M19-MEL
KM-20L2 = tested on: KM-20L2
HOP-18 = tested on: HOP-18
XF498 = tested on: XF498
DMS-273 = tested on: DMS-273
RXF 631 = tested on: RXF 631

Measured: GI50

CN(C)CCNc1ccc2ncn3c4ccccc4c(=O)c1c23
inactive: SNB-78 3.04 µM | DLD-1 1.96 µM | LXFL 529 2.7 µM | M19-MEL 2.96 µM | KM-20L2 2.13 µM | HOP-18 1.17 µM

NCCCNCCSSC/C=C\CSSCCNCCCN
inactive: XF498 52.6 µM and 93.5 µM | DLD-1 37.5 µM and 60.1 µM | LXFL 529 34.9 µM and 24.9 µM | DMS-273 43.1 µM and 44.8 µM | M19-MEL 64.6 µM | HOP-18 > 100 µM

CCOC(=O)CCC(NC(=O)c1ccc(/N=C/c2nc3cc(C(F)(F)F)ccc3nc2-c2ccccc2)cc1)C(=O)OCC (stereo not given)
inactive: SNB-78 10 µM | XF498 2.81 µM | DLD-1 > 50 µM | LXFL 529 43.1 µM | DMS-273 > 100 µM | M19-MEL > 50 µM | KM-20L2 > 50 µM | HOP-18 > 100 µM

C[N+]1=C(c2cccnc2/C=N/O)OCC1(C)C
inactive: SNB-78 > 100 µM | XF498 > 100 µM | DLD-1 > 100 µM | LXFL 529 > 100 µM | DMS-273 > 100 µM | M19-MEL > 100 µM | KM-20L2 > 100 µM | HOP-18 > 100 µM

COC(=O)C1C(=O)N(CCc2c[nH]c3ccccc23)C[C@@H]2CCC(=O)C[C@H]12 (stereo not given in full)
inactive: SNB-78 > 100 µM | XF498 > 100 µM | DLD-1 > 100 µM | LXFL 529 > 100 µM | DMS-273 > 100 µM | M19-MEL > 100 µM | RXF 631 > 100 µM

COC(=O)c1c/c(=N\NC(=O)CC(=O)Nc2ccccc2OC)c2ccccc2o1
inactive: SNB-78 > 100 µM | DLD-1 > 100 µM | LXFL 529 > 100 µM | DMS-273 > 100 µM | M19-MEL > 100 µM | KM-20L2 > 100 µM | HOP-18 15.2 µM

O=C(CN(c1ccccc1)c1ccccc1)N1c2ccccc2C2C=CC=CC21 (stereo not given)
inactive: SNB-78 36.8 µM | XF498 19.6 µM | DLD-1 25.6 µM | LXFL 529 16 µM | DMS-273 22 µM | M19-MEL 21.5 µM | KM-20L2 24.2 µM | HOP-18 25.6 µM

CC1(C)CC(=O)C(=[N+]=[N-])C(=O)C1
inactive: XF498 > 100 µM | DLD-1 > 100 µM | LXFL 529 > 100 µM | KM-20L2 > 100 µM

O=C1CC(c2ccc(Cl)cc2)=Nc2ccccc2N1
inactive: SNB-78 86.7 µM | DLD-1 > 100 µM | LXFL 529 > 100 µM | DMS-273 79.1 µM | M19-MEL > 100 µM | RXF 631 74.6 µM | KM-20L2 > 100 µM | HOP-18 40.9 µM

O=C(Nc1ccc(Cl)c(Cl)c1)C1C(=O)N(c2ccc(Cl)c(Cl)c2)C(=O)/C1=N\O (stereo not given)
inactive: SNB-78 > 100 µM | DLD-1 > 100 µM | LXFL 529 > 100 µM | DMS-273 > 100 µM | M19-MEL 31.8 µM | KM-20L2 43.5 µM | HOP-18 > 100 µM

COc1ccc(/C=c2/sc3n(c2=O)NC2(CCCCC2)NN=3)cc1
inactive: SNB-78 > 100 µM | XF498 > 100 µM | DLD-1 > 100 µM | LXFL 529 > 100 µM | DMS-273 > 100 µM | M19-MEL > 100 µM | KM-20L2 > 100 µM

NC(=O)c1ccc(Cl)c([N+](=O)[O-])c1
inactive: SNB-78 > 100 µM | XF498 > 100 µM | DLD-1 > 100 µM | LXFL 529 > 100 µM | DMS-273 > 100 µM | M19-MEL > 100 µM | KM-20L2 > 100 µM | HOP-18 > 100 µM

C/C(=N\Nc1ccc([N+](=O)[O-])cc1)C(=O)N(C)Nc1ccccc1
inactive: XF498 63.1 µM | DLD-1 > 100 µM | LXFL 529 52.6 µM | DMS-273 69.8 µM | M19-MEL 69.5 µM | KM-20L2 60.4 µM | HOP-18 > 100 µM

N=C(N)n1ncc(Cl)c(Cl)c1=O
inactive: SNB-78 1.98 µM | XF498 1.81 µM | DLD-1 2.38 µM | LXFL 529 1.8 µM | DMS-273 2.28 µM | M19-MEL 1.69 µM | RXF 631 1.81 µM | KM-20L2 4.33 µM | HOP-18 1.38 µM

N#Cc1ccc(OCCSCCCCCCCCCCSCCOc2ccc(C#N)cc2)cc1
inactive: SNB-78 > 100 µM | LXFL 529 > 100 µM | M19-MEL > 100 µM | KM-20L2 > 100 µM | HOP-18 > 100 µM

N#CC(C(=O)CCC(=O)C(C#N)c1ccccc1)c1ccccc1 (stereo not given)
inactive: SNB-78 > 100 µM | XF498 > 100 µM | DLD-1 > 100 µM | LXFL 529 > 100 µM | DMS-273 > 100 µM | M19-MEL > 100 µM | HOP-18 > 100 µM

COC1(OC)CCCCC2c3cccc(OC(C)=O)c3C21OC(C)=O (stereo not given)
inactive: SNB-78 > 100 µM | XF498 29.2 µM | DLD-1 > 100 µM | LXFL 529 > 100 µM | DMS-273 > 100 µM | M19-MEL > 100 µM | HOP-18 > 100 µM

Cc1cccc(C)c1NC(=O)CCC(=O)NNc1nnc(C)n1N
inactive: SNB-78 > 100 µM | XF498 > 100 µM | DLD-1 > 100 µM | LXFL 529 > 100 µM | DMS-273 > 100 µM | M19-MEL > 100 µM | RXF 631 > 100 µM | KM-20L2 > 100 µM | HOP-18 > 100 µM

NC(=S)N/N=C1\CCCC\C1=C/c1ccccc1
inactive: SNB-78 > 100 µM | DLD-1 33.2 µM | LXFL 529 31.4 µM | DMS-273 18.5 µM | M19-MEL 81.1 µM | RXF 631 89.3 µM | KM-20L2 > 100 µM | HOP-18 38.2 µM

O=C(CCC(=O)C1Cc2ccccc2C1=O)Nc1cccc(C(F)(F)F)c1 (stereo not given)
inactive: SNB-78 > 100 µM | DLD-1 > 100 µM | LXFL 529 > 100 µM | DMS-273 > 100 µM | M19-MEL > 100 µM | RXF 631 > 100 µM | KM-20L2 > 100 µM | HOP-18 > 100 µM

CCOc1ccccc1NC(=O)C(=O)CC(=O)c1c(C)[n+]([O-])c2ccccc2[n+]1[O-]
inactive: SNB-78 > 100 µM | LXFL 529 > 100 µM | DMS-273 > 100 µM | M19-MEL 50.9 µM | KM-20L2 75.7 µM | HOP-18 46.5 µM

COC(=O)C(Cc1nc2ccccc2nc1O)C(NO)C(=O)Nc1c(Cl)cc([N+](=O)[O-])cc1Cl (stereo not given)
inactive: SNB-78 40.8 µM | DLD-1 28.9 µM

CC(=O)NC1=C(NCCC(C)C)C(=O)c2ccccc2C1=O
inactive: SNB-78 > 50 µM | XF498 > 50 µM | DLD-1 > 50 µM | LXFL 529 > 50 µM | DMS-273 > 50 µM | M19-MEL > 50 µM | KM-20L2 > 50 µM

CCOC(=O)C1N(S(=O)(=O)c2ccc(C)cc2)CCC12c1ccccc1N(C(C)=O)C2C(/C=C/C(=O)OC)=C/C(=O)OC (stereo not given)
inactive: SNB-78 > 100 µM | XF498 > 100 µM | DLD-1 > 100 µM | LXFL 529 > 100 µM | DMS-273 89.9 µM | M19-MEL > 100 µM | KM-20L2 > 100 µM

CC1CC2C3CC(F)C4=CC(=O)C=CC4(C)C3(F)C(O)CC2(C)C1(O)C(=O)CO (stereo not given)
inactive: SNB-78 > 100 µM | XF498 > 100 µM | DLD-1 > 100 µM | DMS-273 > 100 µM | M19-MEL > 100 µM | RXF 631 > 100 µM | KM-20L2 > 100 µM

O=S(=O)(O)SC/C=C\CSS(=O)(=O)O
inactive: SNB-78 > 100 µM | XF498 > 100 µM | DLD-1 > 100 µM | LXFL 529 > 100 µM | DMS-273 69.5 µM | M19-MEL 98.9 µM | RXF 631 37.5 µM | KM-20L2 > 100 µM | HOP-18 > 100 µM

CC1CC[C@]2(C(=O)O)CCC3(COC(=O)/C=C\c4ccc(O)cc4)C(=CCC4[C@@]5(C)CC[C@H](O)C(C)(C)C5CC[C@]43C)[C@@H]2[C@H]1C (stereo not given in full)
inactive: SNB-78 > 100 µM | DLD-1 10.8 µM | LXFL 529 22.7 µM | DMS-273 20.3 µM | M19-MEL 21.7 µM | RXF 631 24.4 µM | KM-20L2 18.4 µM | HOP-18 27.5 µM
